Laboratory results from patent publication US8492578B2, “Compounds useful in therapeutic and cosmetic methods” (Photoderma SA, priority 2007, dated 2013).
Entries after “also recorded” stand apart in the source; their conditions may differ. Read-outs that look alike come from different tables or passages of the source.

Columns and labels:
stratum corneum = assay: PpIX fluorescence on intact skin vs skin with stratum corneum removed (permeability through stratum corneum); type: in vivo, human; details: for Fluoresence epidermis: Cold cream formulation, 3 hours after topical administration; for increase of fluorescence upon removal of the stratum corneum: SC removed vs intact skin
Protocol: Permeability of compounds of the invention through the stratum corneum is assessed by measurements of fluorescence of PpIX. The expression “PpIX”, for the purpose of the present specification, stands for PpIX as reported in the literature and other natural porphyrins producing a fluorescent signal following illumination with suitable light. Permeability of the compounds of the present invention is determined by comparing PpIX-induced fluorescence of compounds of the invention applied on the surface of intact skin with fluorescence induced by the same compounds applied on skin from which the stratum corneum has been removed.
The stratum corneum was removed by dry shaving with a razor blade (BIC Classic 1 lame). The lame is gently swept 8 times over the skin without using water, razor foam or any other lubricant.
Formulations comprising compounds of the invention and controls are administered topically on the forearm or the leg using the Tegaderm™ transparent dressing. This dressing enables the transport of water and oxygen according to the specifications of the manufacturer. This dressing was removed and the remaining formulation cleaned with water just before the measurements.
A fluorescence imaging system illustrated in FIG. IX of WO 03/041673 is used to assess the extent and level of PpIX production in “macroscopic” samples (parts of the human body such as: forearm, leg, back, etc.). The experimental equipment and descriptions, as well as the ALA-DGME compounds disclosed therein are expressly incorporated herein by reference. As the goal is to assess the relative level of PpIX, red light at 635 nm is chosen as PpIX fluorescence excitation wavelength. It is indeed well known that red light penetrates deeper in the cutaneous tissues than green and violet light, the later two wavelengths corresponding to larger PpIX absorption peaks (see the PpIX fluorescence excitation and emission spectra presented on the right side in FIG. IX of WO 03/041673).
As presented in the schematic diagram presented in FIG. IX of WO 03/041673, this fluorescence imaging system involves a modified 300 W D-light source 1 (Xe arc lamp from Storz, Tuttlingen, Germany) equipped with a red bandpass filter (635 nm, 20 nm FWHM; Chroma, USA). This fluorescence excitation light is coupled in a Storz 4 mm diameter light guide 2. The output of this light guide is imaged on the tissue sample 3 with a projection objective 4 (Nikon, Japan; A F Nikkor; 1:1.4 D/50 mm) to generate a homogenous spot of 2.5 cm in diameter with an irradiance of 2 mW/cm^2 at 635 nm. The distance between this projection objective 4 and the sample 3 is 25 cm. Therefore, the light beam illuminating the sample can be considered as parallel. The fluorescence is collected by another objective 5 (Fujinon, Japan; TV zoom lens; 1:1.2/12.5-75 mm; Type H6X12.5R-MD3) through a longpass filter 6 (Schott, Germany; RG665) and the image detected by a scientific CCD camera (752×582 pixels CF 8/1 Kappa, Gleichen, Germany) equipped 7 with an image intensifier (Proxifier BV 256-2FcZ-CH, Proxitronic, Bensheim, Germany). The images are captured by the 8-bits camera frame grabber and saved on the computer 8 with the “Kappa Imagebase-control” software. Image treatment is carried out using the IPLab imaging software. The spatial resolution of the complete setup has been measured with an USAF resolution target and the value we obtained in the sample plan is 3 lp/mm, the size of the image detected by the camera being 3×4 cm^2.
A reference sample is been designed to enable a comparison of the relative fluorescence brightness between samples investigated at different times. This reference consists of a ruby disk (diameter: 12 mm; thickness: 1.02 mm; Type 8Sp3, Hans Stettler S A, Lyss, Switzerland) covered with a neutral density filter (T=2.27%) so that the signal obtained with this reference sample corresponds to the typical tissue fluorescence detected in our conditions. The images are analyzed using the NIH image software. […]

[1] = literature reports and Metvix package leaflet; cited from earlier work
hair follicles = assay: Fluorescence imaging of skin after hair removal (selectivity for hair follicle); type: in vivo, human; details: for distribution of fluorescence on skin: 20 wt. % formulation, applied after epilation
Protocol: FIGS. 1-10 are fluorescence images of human forearm or leg skin areas of 2.5 cm in diameter, the pictures being taken three hours after administration of different photosensitizer precursors under variable experimental conditions.
FIGS. 1A-B are fluorescence photographs of human skin to which compounds of the invention were applied. A formulation containing phenylalanin-ALA-amide (compound 1) at 80 wt. % was topically applied to the skin and pictures were taken 3 hours following administration. In FIG. 1A, skin was not pre-treated and fluorescence was measured with 20 milliseconds (ms) exposure time. In FIG. 1B, hair was mechanically removed by wax-epilation before administration of the formulation and fluorescence was measured with 10 milliseconds (ms) exposure time.
Formulations comprising compounds of the invention and controls are administered topically on the forearm or the leg using the Tegaderm™ transparent dressing. This dressing enables the transport of water and oxygen according to the specifications of the manufacturer. […]
A fluorescence imaging system illustrated in FIG. IX of WO 03/041673 is used to assess the extent and level of PpIX production in “macroscopic” samples (parts of the human body such as: forearm, leg, back, etc.). […] As the goal is to assess the relative level of PpIX, red light at 635 nm is chosen as PpIX fluorescence excitation wavelength. It is indeed well known that red light penetrates deeper in the cutaneous tissues than green and violet light, the later two wavelengths corresponding to larger PpIX absorption peaks (see the PpIX fluorescence excitation and emission spectra presented on the right side in FIG. IX of WO 03/041673).
As presented in the schematic diagram presented in FIG. IX of WO 03/041673, this fluorescence imaging system involves a modified 300 W D-light source 1 (Xe arc lamp from Storz, Tuttlingen, Germany) equipped with a red bandpass filter (635 nm, 20 nm FWHM; Chroma, USA). This fluorescence excitation light is coupled in a Storz 4 mm diameter light guide 2. […]

sebaceous gland = assay: Microscopic fluorescence image of tissue sample; details: formulation comprising 20 wt. %
Pytirosporum ovale = assay: Photodestruction of the yeast P. ovale 24 hours after PDT; type: in vivo, human; details: 5 wt. % in Cold cream; 3 hours, then 5-15 J/cm^2 red light; 24 hours after light exposure
Protocol: 24 hours after the end of the light exposure, scales are collected using a patch-strip method (D-Squame. Cuderm Corp. Dallas. US) and P. ovale can be counted under fluorescence microscope using a fluorochrome which is selective for this type of yeast (Fungiqual A. Kandern. D E).

Propionobacterium acnes = assay: Photodestruction of P. acnes immediately after PDT; type: in vivo, human; details: face of a volunteer
Text: Immediately after illumination, the bacteria present on the administration zone are collected by immersion in a collection buffer allowing bacteria to detach and survive in suspension. Collection samples are inoculated, after suitable dilution, on agar plates, which are selective for p. acnes. CFU (Colony Forming Units) are counted after 5 days of growth on selective medium.

[2] = tested on: skin area affected with seborrheic dermatitis; assay: Cosmetic PDT treatment of seborrheic dermatitis; type: in vivo, human; details: 5% in Cold cream
[3] = fluorescence on intact skin relative to skin with SC removed
[4] = skin treatment: No (intact skin)
[5] = skin treatment: SC removed by dry shaving

Protocol for psoriatic plaque: ALA-DGME 5% is prepared in Cold cream as in the previous example. 50 mg of 5% ALA-DGME in Cold cream are applied to the psoriatic plaque. 3 hours later, the zone which received ALA-DGME is exposed to 10-30 J/cm^2 of red light. The treatment is repeated 6 times with a 2 weeks interval.

| Compound | Penetration through epidermis (%) (stratum corneum; [3]) | Fluoresence epidermis (stratum corneum; [4]) [arbitrary relative units] | Fluoresence epidermis (stratum corneum; [5]) [arbitrary relative units] | further results |
| --- | --- | --- | --- | --- |
| NCC(=O)CCC(=O)O[C@H]1O[C@H](CO)[C@@H](O)[C@H](O)[C@H]1O [Compound 11, 1′-α-D-Glucose-ALA-ester] | 0 | 0 | 12 |  |
| ALA-ethyl-ester-ALA [Compound 8] | 13.3 | 30 | 225 | increase of fluorescence upon removal of the stratum corneum (stratum corneum): 7.5 fold; Penetration through epidermis (%) (stratum corneum; fluorescence on intact skin relative to skin with SC removed, listed as compound 8): 13.3% |
| NCC(=O)CCC(=O)Oc1ccc(CC(N)C(=O)O)cc1 (stereo not shown) [Compound 2, Tyrosine-ALA-ester] |  | 0 | 114 |  |
| NCC(=O)CCC(=O)O [ALA, 5-aminolevulinic acid, reference compound] |  | 31 | 52 | allergenic potential [1]: has not demonstrated such an allergenic potential; distribution of fluorescence on skin (hair follicles): fluorescence is non-specific and uniformly distributed over the entire skin area; Penetration through epidermis (%) (stratum corneum; human): 59.6% |
| CCCCCCOC(=O)CCC(=O)CN [Hexyl-ALA-ester, reference compound] |  | 37 | 88 | Penetration through epidermis (%) (stratum corneum): 42% |
| ALA-Cholesterylhexyl-ester [Compound 5] | 7.44 | 7 | 94 |  |
| CC(C)CCCC(C)C1CCC2C3CC=C4CC(OC(=O)CCC(=O)CN)CCC4(C)C3CCC12C (stereo not shown) [Compound 6, ALA-Cholesteryl-ester] |  | 1 | 25 | increase of fluorescence upon removal of the stratum corneum (stratum corneum): 25 fold; Penetration through epidermis (%) (stratum corneum; human): 4% |
| Phloroglucinol-tri-ALA-ester [Compound 7] | 16 | 30 | 187 |  |
| NCC(=O)CCC(=O)OCC(O)C1OC(=O)C(O)=C1O (stereo not shown) [Compound 12, ALA-ascorbate-ester] |  | 4 | 20 |  |
| CCOCCOCCOC(=O)CCC(=O)CN [ALA-DGME, diethylene-glycol monoethyl ether ester of ALA] | 35.1 | 20 | 57 | fluorescence in tissue sample (microscopic image) (sebaceous gland): fluorescence in sebaceous gland; psoriasis plaque after several PDT treatments (psoriatic plaque; 5% in Cold cream, 10-30 J/cm^2 red light, repeated 6 times with 2 weeks interval): partial clearance; accumulation of photosensitizer in psoriasis lesions (red fluorescence) (psoriatic plaque; 5% in Cold cream, 3 hours): accumulated specifically in the psoriasis lesions; side effects to the surrounding skin (psoriatic plaque; after several PDT treatments, 5% in Cold cream): no side effects to the surrounding skin; selectivity of fluorescence for psoriasis plaque (psoriatic plaque; formulation comprising 20 wt. % (figure legend)): red fluorescence covering the psoriasis plaque solely; reduction in Pytirosporum ovale counts (Pytirosporum ovale): substantial reduction of yeast counts; adverse reaction on the skin (Propionobacterium acnes; 5% in Cold cream plus red light): No adverse reaction was observed; reduction in Propionobacerium acnes counts (CFU) (Propionobacterium acnes; 5% in Cold cream, 3 hours, then 5-15 J/cm^2 red light, immediately after illumination): suitable to kill microorganism present on the skin; also recorded: substantial reduction of bacterial counts; side effects to the surrounding skin ([2]; 24 hours after PDT): no side effects to the surrounding skin; skin reaction after PDT ([2]; 24 hours after PDT, 5-15 J/cm^2 red light): slight redness; selectivity of fluorescence for affected skin ([2]; topically applied on skin with seborrheic dermatitis, 3 hours): accumulated specifically in the skin area affected with SD; also recorded: only affected skin area shows red fluorescence; distribution of fluorescence on skin (hair follicles): fluorescence is discretely associated to specific small spots |
| NCC(=O)CCC(=O)NC(Cc1ccccc1)C(=O)O (stereo not shown) [Compound 1, Phenylalanine-ALA-amide] |  |  |  | fluorescence at positions of hair follicles (hair follicles; 80 wt. % formulation, hair removed by wax-epilation, 3 hours after administration, 10 ms exposure): spots of high fluorescence |
